# Measurements taken from US20200009137A1, “TOPICAL FORMULATIONS AND USES THEREOF” (SUN PHARMA GLOBAL FZE, priority 2015, published 2020).
# How the values were obtained:
# [1] = 1H NMR qualitative studies for free drug; type: physicochemical; settings: D2O; drug peaks evident in CDCl3
# Method: To determine the absence of free drug in the outer aqueous environment, qualitative studies were conducted. Qualitative proton nuclear magnetic resonance (NMR) studies were conducted with Varian 400 MHz NMR. Deuterated chloroform and water as solvent systems were used to resuspend the formulation and NMR studies were performed.
# [2] = Ocular tissue distribution of RX-10045 / RX-10008 (LC-MS/MS); type: in vivo, rabbit; settings: topical ocular RX-10045 formulations 4×/day for 5 days, rabbits
# Method: A study was conducted in rabbits to test the tolerance and ocular tissue distribution of two nanomicellar formulations of compound 1001 (RX10045) against matching placebos (Table 7a and 7b) and balanced saline solution (BSS). Healthy New Zealand female white rabbits (2-3 kg) were used for this study. One drop (approximately 35 μL) of study drug was applied o.d. 4×/day at two hour intervals for 5 days. One drop of BSS was applied to the contralateral eye.
# Selected ocular fluids/tissues (aqueous humor, vitreous humor, conjunctiva, cornea, iris-ciliary body, lens, retina/choroid, and sclera) collected from two rabbits each in the RX-10045 (0.15% in HCO-60, 0.1% in HCO-40) treatment groups, and from one rabbit in each of the matching placebo groups, were assayed for compound 1001 and another resolvin by liquid chromatography-tandem mass spectrometry (LC-MS/MS). Warfarin-d5 and 5-HDA were used as internal standards for the analysis of RX-10045 and its active metabolite, RX-10008, respectively, in aqueous humor and vitreous humor. For the other ocular tissues (solid tissues), warfarin-d5 and phenyl acetic acid-d5 (PAA-d5) were used as the internal standards for compound 1001 and RX-10008, respectively. The analytical range for the solid tissues were 0.125-100 ng. The results of the solid tissue analyses were converted to ng/g by correcting for the amount of tissue analyzed.
smiles,measurement,setting,value
C#CC[C@@H](O)/C=C/C=C/C#C[C@@H](O)CCCC(=O)OC(C)C [compound 1001],Free drug when MNF is resuspended in aqueous solution (qualitative proton NMR),[1],not freely available
same,Compound 1001 in the majority of ocular tissues,[2],either not detected or was below the quantitation limit of the assay
